How the values were obtained:
MRGPRX2 [1] = biological target: T1, MRGPRX2 (Homo sapiens, UniProt Q96LB1); experiment: β-arrestin assay (agonist mode), β-arrestin CHO cells recombinantly expressing MRGPRX2; format: cell-based; details: for EC50: agonist test, read-out: β-Arrestin assay EC50 ± SEM; for β-Arrestin assay % activation: normalized to CST-14 (EC80 5,000 nM)
T1 sequence (Q96LB1 1-330): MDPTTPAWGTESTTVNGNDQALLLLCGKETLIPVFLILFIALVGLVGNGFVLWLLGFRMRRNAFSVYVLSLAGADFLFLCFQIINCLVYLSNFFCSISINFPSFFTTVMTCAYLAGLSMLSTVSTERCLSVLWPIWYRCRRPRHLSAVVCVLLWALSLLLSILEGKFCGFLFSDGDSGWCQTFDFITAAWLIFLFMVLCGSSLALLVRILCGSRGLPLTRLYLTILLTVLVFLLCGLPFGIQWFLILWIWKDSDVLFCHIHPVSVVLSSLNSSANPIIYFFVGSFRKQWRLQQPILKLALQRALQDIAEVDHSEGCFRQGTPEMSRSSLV
Description: Eurofins DiscoverX (Fremont, CA, USA) provided engineered Chinese hamster ovary (CHO) cells stably expressing β-arrestin-2 fused to a large β-galactosidase fragment (enzyme acceptor, EA). These CHO-K1-β-arrestin-2 cells were commercially available (93-0164). CHO-K1-β-arrestin-2 cells that additionally expressed MRGPRX1, -2, or -4 fused to the fragment ProLink™ (PK) were also purchased from the same company (93-0919C2, 93-0309C2, and 3-0541C2A, respectively). CHO cells expressing MRGPRX3 were generated as previously […].[31] The cells were grown in F-12 Ham Nutrient Mixture (Life Technologies) supplemented with 10% FBS, 100 U/mL of penicillin, 100 µg/mL of streptomycin (PAN-Biotech), 300 μg/mL of hygromycin B (PAN-Biotech), and 800 μg/mL of gentamicin (PAN-Biotech) at 37 °C and 5% CO2.).
The assays were carried out as previously described.[22] […] After 30 min of incubation at 37 °C and 5% CO2, Cortistatin-14 (CST-14, Bioscience, Bristol, United Kingdom) or another MRGPRX2 agonist that served as a standard agonist was added, and the mixture was incubated for 90 min at 37 °C and 5% CO2. Next, a detection reagent (50 µL, DiscoverX) was added, and the mixture was incubated at room temperature in the dark for 60 min. Chemiluminescence was measured on a Mithras LB 940 plate reader (Berthold Technologies, Bad Wildbad, Germany). The results represent means ± SEM of three to five independent experiments, each in duplicates.
^d β-Arrestin CHO cells recombinantly expressing MRGPRX2
^f Percentage of activation of normalized to CST-14 (EC80 5,000 nM)

MRGPRX2 [2] = biological target: T1, MRGPRX2; experiment: Ca2+ mobilization assay, LN229 cells overexpressing MRGPRX2; format: cell-based; design: expressed in transfected cells; host or cells: LN229 human glioblastoma cells; plasmid pLXSN-MRGPRX2 (Addgene #213960); details: for MRGPRX2 antagonistic potency in Ca2+ assay, in words: versus CST-14; for Ki: versus CST-14 (EC80 800 nM, EC50 452 nM), Cheng-Prusoff, read-out: Ca2+ assay Ki ± SEM
Experimental: Glioblastoma LN229-MRGPRX2 stably expressing MRGPRX2 (produced by retroviral transfection) were seeded into black sterile 96-well microplates at a density of 5 × 10^4 cells/well in 200 µL of DMEM/F12-Nut Mix medium, supplemented with 10% FCS, 100 U/mL of penicillin 100 µg/mL of streptomycin, and 200 µg/mL of G418 and incubated for 18–22 h.
The next day Fluo-4 AM Solution (1 mM) (Thermo Fisher Scientific) was prepared and used to prepare cell loading dye solution consisting of 4970 µL of Hank’s Buffered Saline Solution (HBSS) buffer, 15 µL of 20% Pluronic-F and 15 µL of 1 mM Fluo-4 AM. Next, the cell medium was removed and exchanged for 40 µL of dye solution per well (final concentration of Fluo-4 AM: 3 µM). The cell plate was incubated for 60 min in the dark at room temperature, then the dye solution was removed and replaced by 189 µL HBSS. Subsequently, 1 µL of antagonist diluted in DMSO was added and incubated for 30 min at room temperature and in the dark (final DMSO concentration 0.5%, v/v). CST-14 or another agonist prepared in HBSS as well as carbachol (final concentration 100 µM) were pipetted (10 µL) using a FlexStation® 3 Multi-Mode Microplate Reader. For the determination of baseline fluorescence, HBSS buffer containing solvent of the investigated compound was used. Fluorescence was measured for 120 intervals of 1 s (number of flashes: 10) at a wavelength of 525 nm (excitation 485 nm) using the SoftMax® Pro5.1 Microplate Data Acquisition & Analysis Software. Three independent experiments were performed in duplicates. Measurements are provided in relative fluorescence units and normalized to the maximal effect of CST-14.

MRGPRX2 [3] = biological target: T1, MRGPRX2; experiment: β-arrestin recruitment assay (antagonist mode), β-arrestin-CHO cells recombinantly expressing MRGPRX2; format: cell-based; design: expressed in transfected cells; details: for Ki: versus CST-14 (EC80 1,000 nM, EC50 483 nM), Cheng-Prusoff, read-out: β-Arrestin assay Ki ± SEM
[4] = Metabolic stability in human liver microsomes; format: in vitro ADME; details: both sexes, human liver microsomes 0.25 mg/ml, compound 1 µM

SMILES | EC50 (MRGPRX2 [1]) [nM] | β-Arrestin assay % activation (MRGPRX2 [1]) [%] | MRGPRX2 antagonistic potency in Ca2+ assay, in words (MRGPRX2 [2]) | Ki (MRGPRX2 [3]) [nM] | Ki (MRGPRX2 [2]) [nM] | also measured
CCc1c(C)n(C)c2nc3ccccc3n2c1=O [Compound 20] | > 10000 | 1 | not tolerated | – | – | –
CCc1c(-c2cccs2)[nH]c2nc3ccccc3n2c1=O [Compound 16] | > 10000 | -2 | – | – | – | –
CCCc1cc(=O)n2c(nc3ccccc32)[nH]1 [Compound 6, 2-Propylbenzo[4,5]imidazo[1,2-a]pyrimidin-4(1H)-one] | > 10000 | 1 | – | 4790 | 4730 | –
Cc1cc(=S)n2c(nc3ccccc32)[nH]1 [Compound 17] | > 10000 | -3 | – | – | – | –
CCc1c(C(C)C)[nH]c2nc3ccc(C)cc3n2c1=O [Compound 28] | > 10000 | -3 | subnanomolar potencies | 47.8 ± 9.77 | 0.322 | fold improved potency compared to 27 (MRGPRX2 [2]): 20 fold
CCc1c(C2CC2)[nH]c2nc3ccccc3n2c1=O [Compound 14] | > 10000 | 0 | – | 384 ± 214 | 69.7 | –
CCc1c(C(C)C)[nH]c2nc3ncc(F)cc3n2c1=O [Compound 32] | > 10000 | -3 | reduced potency dramatically | 824 ± 553 | 931 ± 685 | –
Cc1cc(=O)n2c(n1)oc1ccccc12 [Compound 22] | > 10000 | 0 | inactive | – | – | –
CCc1c(C(C)C)[nH]c2nc3cc(C)ccc3n2c1=O [Compound 29] | > 10000 | -2 | subnanomolar potencies | 29.6 ± 19 | 0.161 | fold improved potency compared to 27 (MRGPRX2 [2]): 40 fold
Cc1cc(=O)n2c(n1)sc1ccccc12 [Compound 23] | > 10000 | -1 | inactive | – | – | –
CCCc1c(C(C)C)[nH]c2nc3ccccc3n2c1=O [Compound 11] | > 10000 | 1 | – | 166 ± 69.7 | 43.3 ± 24.5 | –
CCc1c(C(C)C)[nH]c2nc3cc(Cl)c(Cl)cc3n2c1=O [Compound 25] | > 10000 | 1 | – | 155 ± 56.6 | 2.98 | –
CCc1c(C(C)C)[nH]c2nc3cc(Br)c(Br)cc3n2c1=O [Compound 26] | > 10000 | -1 | – | 289 ± 119 | 13.3 | –
CCc1c(C(C)(C)C)[nH]c2nc3ccccc3n2c1=O [Compound 13] | > 10000 | -1 | – | 113 ± 42.3 | 8.44 | –
CCCc1[nH]c2nc3ccccc3n2c(=O)c1CC [Compound 8] | > 10000 | -1 | – | 90.5 ± 7.03 | 25.8 | –
CCc1c(C)[nH]c2nc3ccccc3n2c1=O [Compound 2] | > 10000 | -2 | – | 1050 | 238 | –

SMILES | EC50 (MRGPRX2 [1]) [nM] | β-Arrestin assay % activation (MRGPRX2 [1]) [%] | MRGPRX2 antagonistic potency in Ca2+ assay, in words (MRGPRX2 [2]) | Ki (MRGPRX2 [3]) [nM] | Ki (MRGPRX2 [2]) [nM] | also measured
CCCc1[nH]c2nc3ccccc3n2c(=O)c1CCC [Compound 9] | > 10000 | -1 | – | 69.7 ± 20.8 | 16.6 ± 10.9 | –
CN(C)[C@@H]1CCN(c2cc(-c3ccccc3)nc3ccnn23)C1 [(R)-ZINC-3573, reference compound] | – | – | – | – | – | EC80 of agonist, β-arrestin assay (MRGPRX2 [3]): 2000 nM; EC50 (MRGPRX2 [3]; without antagonist, read-out: EC50 of (R)-ZINC-3573, shift assay): 2020 ± 333 nM
Cc1cc(=O)n2c(nc3ccccc32)[nH]1 [Compound 4] | > 10000 | 0 | – | – | – | –
CCc1c(C(C)C)[nH]c2nc3ccccc3n2c1=O [Compound 10] | > 10000 | -1 | subnanomolar potencies | 94.4 ± 63.8 | 0.895 | fold increase in potency compared to hit compound 1 (MRGPRX2 [2]): 275 fold
CCc1c(-c2ccccc2)[nH]c2nc3ccccc3n2c1=O [Compound 15] | > 10000 | 0 | – | 175 ± 49.5 | 364 | –
O=c1cc[nH]c2nc3ccccc3n12 [Compound 5, benzo[4,5]imidazo[1,2-α]pyrimidin-4(1H)-one] | > 10000 | -1 | – | – | – | –
CCc1c(C(C)C)[nH]c2nc3c(C)cccc3n2c1=O [Compound 31] | > 10000 | 1 | abolished antagonistic activity | – | – | –
CSc1cc(C(C)C)nc2nc3ccccc3n12 [Compound 19] | > 10000 | -1 | completely inactive | – | – | –
CC(C)c1cc(=S)n2c(nc3ccccc32)[nH]1 [Compound 18] | > 10000 | -1 | – | 48.2 ± 1.08 | 1.42 | fold increase in potency compared to 7 (MRGPRX2 [2]): ~3000 fold
CCc1c(CC(C)C)[nH]c2nc3ccccc3n2c1=O [Compound 12] | > 10000 | -2 | – | 152 ± 33.8 | 18.5 ± 13.7 | –
CN(C)CCCN1c2ccccc2CCc2ccc(Cl)cc21 [clomipramine, reference compound] | – | – | – | – | – | EC80 of agonist, β-arrestin assay (MRGPRX2 [3]): 13000 nM
CCc1c(C(C)C)[nH]c2nc3nc(F)ccc3n2c1=O [Compound 33] | – | – | reduced potency dramatically | 1610 | 906 ± 137 | half-life at 1 µM ([4]; human, liver microsomes, read-out: T1/2 (half-life)): 48.8 min; microsomal CLint at 1 µM ([4]; read-out: Clint (intrinsic clearance)): 28.4 µL/min/mg
Cc1[nH]c2nc3ccccc3n2c(=O)c1C [Compound 3] | > 10000 | 1 | – | 3780 | 1040 | fold decrease in potency (MRGPRX2 [2]; 3-methyl compared to 3-ethyl (2)): 4 fold
CC(C)c1cc(=O)n2c(nc3ccccc32)[nH]1 [Compound 7] | > 10000 | 0 | – | 1050 | 4260 | –
CC(C)c1cc(=O)n2c3ccccc3n(C)c2n1 [Compound 21] | > 10000 | -1 | not tolerated | – | – | –
